The values that follow come from PMC9026148, “Pre-Clinical Study Evaluating Novel Protein Phosphatase 2A Activators as Therapeutics for Neuroblastoma” (Cancers, 2022).

Like-named read-outs stand apart in the source and are kept apart here. Bounds are passed on as bounds.

Series [1] is described as follows: Microsome (oxidative metabolism) stability, rat. The series is classed as in vitro ADME. Conditions: for half-life at 1 µM: liver microsomes 0.5 mg/mL, NADPH, read-out: T1/2 Rat; for microsomal CLint at 1 µM: liver microsomes, read-out: CL Rat. The procedure:
Microsome stability assays were performed by Bioduro, LLC. Briefly, 2.5 µL (100 µM in DMSO) of test compounds are added to 197.5 µL of human, rat, or mouse microsome preparation (0.633 mg/mL in phosphate buffer) and mixed gently at 37 °C. The reaction is started by adding 50 µL NADPH (5 mM in phosphate buffer) and mixing at 37 °C. The final reaction microsome concentration is 0.5 mg/mL. The reaction is sampled at 0, 5, 15, 30, and 60 min. Reaction aliquots are quenched by adding to 1:1 methanol–acetonitrile containing analytical standards and analyzed by liquid chromatography with tandem mass spectrometry (LC-MS/MS).

The next series concerns the target T1, CYP-3A4 (Homo sapiens, UniProt P08684).
T1 construct: tissue Bioduro, LLC (contract lab that ran the assay); host or cells: human liver microsomes
Nature of the series: Time-dependent CYP-3A4 inhibition (midazolam turnover, human liver microsomes). The series is classed as in vitro ADME. Conditions: for IC50: 50% inhibition of midazolam turnover. The procedure:
Time-dependent CYP-3A4 inhibition assays were performed by Bioduro, LLC. In brief, the test compound is pre-incubated with human liver microsomes (0.25 mg/mL in reaction) and NADPH (0.5 mM in reaction) for 5, 30, and 60 min to allow metabolite formation. Midazolam, a known standard substrate of CYP-3A4, is added to give 2.5 µM reaction concentration, and consumption (microsome stability) of midazolam is assayed as above.

The test system of the next series is SK-N-BE(2) flank tumors. Nature of the series: SK-N-BE(2) flank tumor growth in athymic nude mice. The series is classed as in vivo, mouse. The conditions noted are these: 50 mg/kg bid po. The procedure:
SK-N-AS (1.8 × 10^6) or SK-N-BE(2) (1.5 × 10^6) cells in 25% Matrigel™ (BD Biosciences) were injected into the right flank of 6-week-old female athymic nude mice (Fredricks, Charles River, Wilmington, MA, USA) (n = 5 for SK-N-AS vehicle treated, n = 7 for SK-N-AS 792 or 1154 treatment and all SK-N-BE(2) experimental groups). Calipers were used to measure tumors three times per week, and volumes were calculated by the formula (width^2 × length)/2, where width was the smaller measurement. After tumors reached a volume of 100 mm^3, animals were randomized to three groups to receive 100 µL of either vehicle (N,N-dimethylacetamide (DMA, 271012, Sigma Aldrich) and Kolliphor® HS 15 (Solutol, 42996, Sigma Aldrich)), 792 (50 mg/kg in DMA and Solutol), or 1154 (50 mg/kg in DMA and Solutol) twice daily by oral gavage; dosing based on previously published in vivo cancer models. Animals were weighed weekly and were humanely euthanized in their home cages with CO2 and cervical dislocation when control tumors reached 2000 mm^3; either 9 (SK-N-AS tumors) or 19 days (SK-N-BE(2) tumors) following treatment initiation, or when IACUC parameters were met. Power analysis was completed prior to the study.

The test system of another series is SK-N-BE(2) cells. Briefly: alamarBlue viability, SK-N-BE(2). The series is classed as cell-based, human. Conditions: 24 h. The procedure:
CellTiter 96® Aqueous One Solution Cell Proliferation assay (Promega, Madison, WI, USA) was used to examine proliferation, and alamarBlue® assay (Thermo Fisher Scientific, Inc.) was used to evaluate viability. Cells, concentrations ranging from 5 × 10^3 to 1.5 × 10^4, depending on cell type due to wide variation in growth characteristics between established cell lines and PDX cells, were plated in 96-well plates and treated with increasing doses of 792 or 1154 for 24 h. CellTiter 96® or alamarBlue® dye (10 µL) was added for proliferation and viability assays, respectively. A microplate reader (Epoch Microplate Spectrophotometer, BioTek Instruments, Winooski, VT) measured absorbance at 490 nm for CellTiter 96® and at 570 nm for alamarBlue®, using 600 nm as a reference. […] Experiments were completed with at least three biologic replicates, and data reported as fold change ± SEM. […]
Supplemental Table S1: Neuroblastoma cells had the highest sensitivity to 792 and 1154.
(A) SK-N-AS and (B) SK-N-BE(2) cells (1.5 x 104) were plated in 96-well plates and treated with increasing doses of nine PP2A activating compounds for 24 hours. Compounds 792 and 1154 had the lowest LD50s of the nine compounds investigated in both cell lines.
Supplemental Figure S4: SK-N-AS cells were treated with FTY720 (0, 5 μM), 792 (10 μM), or 1154 (10 μM) for 24 hours and PP2A activity was measured. […]
On the technique in general: Alamar Blue is a resazurin reagent that responds to reducing activity.

The next series relates to SK-N-AS cells. Briefly: alamarBlue viability, SK-N-AS. Conditions: 24 h. The series is classed as cell-based, human. On the procedure: CellTiter 96® Aqueous One Solution Cell Proliferation assay (Promega, Madison, WI, USA) was used to examine proliferation, and alamarBlue® assay (Thermo Fisher Scientific, Inc.) was used to evaluate viability. Cells, concentrations ranging from 5 × 10^3 to 1.5 × 10^4, depending on cell type due to wide variation in growth characteristics between established cell lines and PDX cells, were plated in 96-well plates and treated with increasing doses of 792 or 1154 for 24 h. CellTiter 96® or alamarBlue® dye (10 µL) was added for proliferation and viability assays, respectively. A microplate reader (Epoch Microplate Spectrophotometer, BioTek Instruments, Winooski, VT) measured absorbance at 490 nm for CellTiter 96® and at 570 nm for alamarBlue®, using 600 nm as a reference. […] Experiments were completed with at least three biologic replicates, and data reported as fold change ± SEM.
Supplemental Figure S3: Novel PP2A activating compounds decrease d neuroblastoma proliferation and viability. SK-N-AS and SK-N-BE(2) cells (1.5 x 104) were plated in 96-well plates and treated with increasing doses of nine PP2A activating compounds for 24 […]
novel PP2A activators tested in (A) SK-N-AS and (B) SK-N-BE(2) cells. Similarly, PP2A […]
(D) SK-N-BE(2) cells. Data reported as mean fold change ± SEM, and experiments were repeated with at least three biologic replicates. […]

Where [2] appears, read: 5 min pre-incubation, read-out: IC50 at Pre-incubation time 5 min.
Where [3] appears, read: 30 min pre-incubation, read-out: IC50 at Pre-incubation time 30 min.
[4] abbreviates: 60 min pre-incubation, read-out: IC50 at Pre-incubation time 60 min.

T1 sequence (P08684 whole entry): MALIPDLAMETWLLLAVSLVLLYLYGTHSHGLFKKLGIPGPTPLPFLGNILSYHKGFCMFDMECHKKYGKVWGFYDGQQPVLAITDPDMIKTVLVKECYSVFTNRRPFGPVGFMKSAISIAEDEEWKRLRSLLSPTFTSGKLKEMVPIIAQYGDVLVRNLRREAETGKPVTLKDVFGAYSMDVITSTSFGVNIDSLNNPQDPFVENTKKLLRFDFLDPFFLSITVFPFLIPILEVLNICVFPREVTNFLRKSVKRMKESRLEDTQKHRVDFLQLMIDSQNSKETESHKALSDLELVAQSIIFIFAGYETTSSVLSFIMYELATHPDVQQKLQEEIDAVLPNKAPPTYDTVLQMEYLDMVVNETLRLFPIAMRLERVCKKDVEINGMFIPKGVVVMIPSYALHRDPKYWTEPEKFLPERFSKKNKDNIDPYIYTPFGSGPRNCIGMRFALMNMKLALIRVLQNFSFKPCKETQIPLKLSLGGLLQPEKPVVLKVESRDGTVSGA

As to `O=S(=O)(NC1CCCC(N2c3ccccc3CCc3ccccc32)C1O)c1ccc(OC(F)(F)F)cc1` (stereo not drawn) [DBK-1154], in series [1], the half-life at 1 µM came out at 3 min. Moreover, the microsomal CLint at 1 µM in series [1] was 521 µL/min/mg. The IC50 was 42 µM at CYP-3A4 (setting [2]), 27 µM on CYP-3A4 (setting [3]) and 18 µM at CYP-3A4 (setting [4]). Moreover, the IC50 shift at CYP-3A4 (human, human liver microsomes, probe midazolam (2.5 µM), ratio IC50 5 min / 60 min pre-incubation) amounted to 2.4. In the series with SK-N-BE(2) flank tumors (by day 19, vehicle 2362 ± 53), this compound registered a tumor volume of 1628 ± 362 mm^3. In addition, the LD50 was 16.6 µM with SK-N-BE(2) cells and 13.9 µM in the series with SK-N-AS cells.

In the case of `O=S(=O)(N[C@H]1COC[C@@H](n2c3ccc(Cl)cc3c3cc(Cl)ccc32)[C@@H]1O)c1ccc(OC(F)(F)F)cc1` [ATUX-792], the half-life at 1 µM in series [1] is greater than 256 min. Moreover, the microsomal CLint at 1 µM in series [1] is less than 5 µL/min/mg. The half-inhibitory concentration (IC50) on CYP-3A4 (setting [2]), at CYP-3A4 (setting [3]) and at CYP-3A4 (setting [4]) was greater than 50 µM each time. Further, the “CYP-3A4 inhibition” value at CYP-3A4 (time-dependent inhibition assay) was “no CYP-3A4 inhibition”. Also, in the series with SK-N-BE(2) flank tumors (after 17 days, vehicle 2362 ± 53), the tumor volume is on record as 1383 ± 243 mm^3. Besides, the figures for the LD50 with SK-N-BE(2) cells and with SK-N-AS cells were 17.2 µM and 12.2 µM, respectively.

By IC50 is commonly meant the concentration that gives 50% inhibition.
